The text below walks through data of BindingDB's records for doi:10.1002/cbic.201600655 (University At Albany, 2017).

By IC50 is commonly meant the point on the concentration scale where inhibition reaches its midpoint.

Structures are written as SMILES.

For this experiment, the target named is NAD-dependent protein deacylase sirtuin-6 (Homo sapiens, UniProt Q8N6T7). Briefly: Fluorimetric Assay. As to the method: Inhibitory constants (Ki) and IC50 values were determined under saturating substrate conditions by using a fluorimetric assay (components were purchased separately). […] Sirtuin deacetylation of the substrate renders the fluorophore-substrate bond susceptible to treatment with […]. Trypsin cleavage releases the fluorophore, resulting in an increase in fluorescence. Fluorescence intensity was measured on a Synergy HT Multi-Mode microplate fluorescence reader.
Chain of NAD-dependent protein deacylase sirtuin-6 (Q8N6T7 whole entry): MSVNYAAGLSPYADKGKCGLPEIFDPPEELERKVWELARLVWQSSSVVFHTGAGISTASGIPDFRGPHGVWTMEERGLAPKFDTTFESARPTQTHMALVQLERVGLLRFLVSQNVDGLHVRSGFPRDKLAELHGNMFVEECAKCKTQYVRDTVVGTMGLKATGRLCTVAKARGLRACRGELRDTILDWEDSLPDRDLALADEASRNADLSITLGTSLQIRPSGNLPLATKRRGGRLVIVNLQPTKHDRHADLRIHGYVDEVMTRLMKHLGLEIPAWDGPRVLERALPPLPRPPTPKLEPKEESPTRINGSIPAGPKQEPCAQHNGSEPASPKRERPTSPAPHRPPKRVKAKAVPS

With `O=C(O)c1cnccn1`, the IC50 came out at 927 µM.

Turning to `NC(=O)c1cnccn1` [Pyrazinamide], the IC50 was determined as 417 µM.
